Test results reported in ChEMBL document CHEMBL5543151, “Rational Design of a Novel Class of Human ClpP Agonists through a Ring-Opening Strategy with Enhanced Antileukemia Activity” (J Med Chem, 2024).

Columns and labels:
[1] = Acute toxicity in BALB/c mouse assessed as ALB2 biochemical parameter at 25 to 100 mg/kg, ip measured for 2 weeks; format: organism-based; conditions: in vivo, 336 h, dose 25-100 mg/kg
[2] = Acute toxicity in BALB/c mouse assessed as ALP2L biochemical parameter at 25 to 100 mg/kg, ip measured for 2 weeks; format: organism-based; conditions: in vivo, 336 h, dose 25-100 mg/kg
[3] = Acute toxicity in BALB/c mouse assessed as ALTL biochemical parameter at 25 to 100 mg/kg, ip measured for 2 weeks; format: organism-based; conditions: in vivo, 336 h, dose 25-100 mg/kg
[4] = Acute toxicity in BALB/c mouse assessed as ASTL biochemical parameter at 25 to 100 mg/kg, ip measured for 2 weeks; format: organism-based; conditions: in vivo, 336 h, dose 25-100 mg/kg
[5] = Acute toxicity in BALB/c mouse assessed as CREJ2 biochemical parameter at 25 to 100 mg/kg, ip measured for 2 weeks; format: organism-based; conditions: in vivo, 336 h, dose 25-100 mg/kg
[6] = Acute toxicity in BALB/c mouse assessed as LDHI2 biochemical parameter at 25 to 100 mg/kg, ip measured for 2 weeks; format: organism-based; conditions: in vivo, 336 h, dose 25-100 mg/kg
[7] = Acute toxicity in BALB/c mouse assessed as vTP2 biochemical parameter at 25 to 100 mg/kg, ip measured for 2 weeks; format: organism-based; conditions: in vivo, 336 h, dose 25-100 mg/kg
[8] = Acute toxicity in BALB/c mouse assessed as TRIGL biochemical parameter at 25 to 100 mg/kg, ip measured for 2 weeks; format: organism-based; conditions: in vivo, 336 h, dose 25-100 mg/kg
[9] = Acute toxicity in BALB/c mouse assessed as UA2 biochemical parameter at 25 to 100 mg/kg, ip measured for 2 weeks; format: organism-based; conditions: in vivo, 336 h, dose 25-100 mg/kg
[10] = Acute toxicity in BALB/c mouse assessed as UREAL biochemical parameter at 25 to 100 mg/kg, ip measured for 2 weeks; format: organism-based; conditions: in vivo, 336 h, dose 25-100 mg/kg
[11] = Acute toxicity in BALB/c mouse assessed as adverse effect at 25 to 100 mg/kg, ip measured for 2 weeks; format: organism-based; conditions: in vivo, 336 h, dose 25-100 mg/kg
[12] = Acute toxicity in BALB/c mouse assessed as pathological changes in heart at 25 to 100 mg/kg, ip measured for 2 weeks by hematoxylin and eosin staining based assay; format: organism-based; conditions: in vivo, 336 h, dose 25-100 mg/kg
[13] = Acute toxicity in BALB/c mouse assessed as pathological changes in liver at 25 to 100 mg/kg, ip measured for 2 weeks by hematoxylin and eosin staining based assay; format: organism-based; conditions: in vivo, 336 h, dose 25-100 mg/kg
[14] = Acute toxicity in BALB/c mouse assessed as pathological changes in spleen at 25 to 100 mg/kg, ip measured for 2 weeks by hematoxylin and eosin staining based assay; format: organism-based; conditions: in vivo, 336 h, dose 25-100 mg/kg
[15] = Acute toxicity in BALB/c mouse assessed as pathological changes in lung at 25 to 100 mg/kg, ip measured for 2 weeks by hematoxylin and eosin staining based assay; format: organism-based; conditions: in vivo, 336 h, dose 25-100 mg/kg
[16] = Acute toxicity in BALB/c mouse assessed as pathological changes in kidney at 25 to 100 mg/kg, ip measured for 2 weeks by hematoxylin and eosin staining based assay; format: organism-based; conditions: in vivo, 336 h, dose 25-100 mg/kg
MV4-11 [17] = assay: In vivo anti-leukemia activity against human MV4-11 cells transplanted in BALB/c nude mouse assessed as reduction in tumor volume at 2.5 mg/kg, ip twice weekly treatment started 7 th day of cell inoculum till 18 th day; format: functional; set-up: scale not given: the % may be the effect or the level left; conditions: time 11 day
MV4-11 [18] = assay: In vivo anti-leukemia activity against human MV4-11 cells transplanted in BALB/c nude mouse assessed as reduction in tumor weight at 2.5 mg/kg, ip twice weekly treatment started 7 th day of cell inoculum till 18 th day; format: functional; set-up: scale not given: the % may be the effect or the level left; conditions: time 11 day
MV4-11 [19] = assay: In vivo anti-leukemia activity against human MV4-11 cells transplanted in BALB/c nude mouse assessed as reduction in tumor volume at 5 mg/kg, ip twice weekly treatment started 7 th day of cell inoculum till 18 th day; format: functional; set-up: scale not given: the % may be the effect or the level left; conditions: time 11 day
MV4-11 [20] = assay: In vivo anti-leukemia activity against human MV4-11 cells transplanted in BALB/c nude mouse assessed as reduction in tumor weight at 5 mg/kg, ip twice weekly treatment started 7 th day of cell inoculum till 18 th day; format: functional; set-up: scale not given: the % may be the effect or the level left; conditions: time 11 day
MV4-11 [21] = assay: In vivo anti-leukemia activity against human MV4-11 cells transplanted in BALB/c nude mouse assessed as reduction in tumor volume at 10 mg/kg, ip twice weekly treatment started 7 th day of cell inoculum till 18 th day; format: functional; set-up: scale not given: the % may be the effect or the level left; conditions: time 11 day
MV4-11 [22] = assay: In vivo anti-leukemia activity against human MV4-11 cells transplanted in BALB/c nude mouse assessed as reduction in tumor weight at 10 mg/kg, ip twice weekly treatment started 7 th day of cell inoculum till 18 th day; format: functional; set-up: scale not given: the % may be the effect or the level left; conditions: time 11 day
[23] = Toxicity in BALB/c nude mouse transplanted with human MV4-11 cells assessed as change in body weight at 2.5 to 10 mg/kg, ip measured for 17 days; format: organism-based; conditions: in vivo, 408 h, dose 2.5-10 mg/kg, time 17 day
[24] = Toxicity in BALB/c nude mouse transplanted with human MV4-11 cells assessed as pathological damage in heart at 2.5 to 10 mg/kg, ip measured for 17 days by hematoxylin and eosin staining based assay; format: organism-based; conditions: in vivo, 408 h, dose 2.5-10 mg/kg, time 17 day
[25] = Toxicity in BALB/c nude mouse transplanted with human MV4-11 cells assessed as pathological damage in liver at 2.5 to 10 mg/kg, ip measured for 17 days by hematoxylin and eosin staining based assay; format: organism-based; conditions: in vivo, 408 h, dose 2.5-10 mg/kg, time 17 day
[26] = Toxicity in BALB/c nude mouse transplanted with human MV4-11 cells assessed as pathological damage in spleen at 2.5 to 10 mg/kg, ip measured for 17 days by hematoxylin and eosin staining based assay; format: organism-based; conditions: in vivo, 408 h, dose 2.5-10 mg/kg, time 17 day
[27] = Toxicity in BALB/c nude mouse transplanted with human MV4-11 cells assessed as pathological damage in lung at 2.5 to 10 mg/kg, ip measured for 17 days by hematoxylin and eosin staining based assay; format: organism-based; conditions: in vivo, 408 h, dose 2.5-10 mg/kg, time 17 day
[28] = Toxicity in BALB/c nude mouse transplanted with human MV4-11 cells assessed as pathological damage in kidney at 2.5 to 10 mg/kg, ip measured for 17 days by hematoxylin and eosin staining based assay; format: organism-based; conditions: in vivo, 408 h, dose 2.5-10 mg/kg, time 17 day
[29] = Cmax in Sprague-Dawley rat at 5 mg/kg, iv measured upto 12 hrs by LC-MS analysis; format: ADME, organism-based; conditions: in vivo
[30] = AUC(0 to 12hrs) in Sprague-Dawley rat at 5 mg/kg, iv measured upto 12 hrs by LC-MS analysis; format: ADME, organism-based; conditions: in vivo
[31] = Half life in Sprague-Dawley rat at 5 mg/kg, iv measured upto 12 hrs by LC-MS analysis; format: ADME, organism-based; conditions: in vivo
[32] = Clearance in Sprague-Dawley rat at 5 mg/kg, iv measured upto 12 hrs by LC-MS analysis; format: ADME, organism-based; conditions: in vivo
[33] = MRT (0 to 12hrs) in Sprague-Dawley rat at 5 mg/kg, iv measured upto 12 hrs by LC-MS analysis; format: ADME, organism-based; conditions: in vivo
[34] = Bioavailability in Sprague-Dawley rat at 5 mg/kg, iv measured upto 12 hrs by LC-MS analysis; format: ADME, organism-based; conditions: in vivo
[35] = Cmax in Sprague-Dawley rat at 15 mg/kg, po measured upto 12 hrs by LC-MS analysis; format: ADME, organism-based; conditions: in vivo
[36] = Tmax in Sprague-Dawley rat at 15 mg/kg, po measured upto 12 hrs by LC-MS analysis; format: ADME, organism-based; conditions: in vivo
[37] = AUC(0 to 12hrs) in Sprague-Dawley rat at 15 mg/kg, po measured upto 12 hrs by LC-MS analysis; format: ADME, organism-based; conditions: in vivo
[38] = Half life in Sprague-Dawley rat at 15 mg/kg, po measured upto 12 hrs by LC-MS analysis; format: ADME, organism-based; conditions: in vivo
[39] = MRT (0 to 12hrs) in Sprague-Dawley rat at 15 mg/kg, po measured upto 12 hrs by LC-MS analysis; format: ADME, organism-based; conditions: in vivo

For `Cl.N#Cc1cccc(CN2CCc3[nH]c(NCc4ccc(F)cc4)nc(=O)c3C2)c1`, the Activity [1] was “Non-Toxic”, the Activity [2] was “Non-Toxic” and the Activity [3] was “Non-Toxic”. The Activity [4] was “Non-Toxic”, the Activity [5] was “Non-Toxic” and the Activity [6] was “Non-Toxic”. The Activity [7] was “Non-Toxic”, the Activity [8] was “Non-Toxic” and the Activity [9] was “Non-Toxic”. The Activity [10] was “Non-Toxic”, the Activity [11] was “Non-Toxic” and the Activity [12] was “Non-Toxic”. For the same compound, the Activity [13] was “Non-Toxic”, the Activity [14] was “Non-Toxic” and the Activity [15] was “Non-Toxic”. For the same compound, the Activity [16] was “Non-Toxic”, the Activity (MV4-11 [17]) was 20.52% and the Activity (MV4-11 [18]) was 20.35%. It also gave an Activity (MV4-11 [19]) of 75.3%, an Activity (MV4-11 [20]) of 67% and an Activity (MV4-11 [21]) of 88.29%. The Activity (MV4-11 [22]) was 88.88%, the Activity [23] was “Non-Toxic” and the Activity [24] was “Non-Toxic”. The Activity [25] was “Non-Toxic”, the Activity [26] was “Non-Toxic” and the Activity [27] was “Non-Toxic”. The Activity [28] was “Non-Toxic”, the Cmax [29] was 869 ng/mL and the AUC(0-t) at 12 h [30] was 791 ng·h/mL. For the same compound, the half-life [31] was 4.9 h, the clearance [32] was 58.3 mL/min/kg and the MRT last at 12 h [33] was 2.8 h. The bioavailability [34] was 32.7%, the Cmax [35] was 332 ng/mL and the Tmax [36] was 1 h. The AUC(0-t) at 12 h [37] was 780 ng·h/mL, the half-life [38] was 3.9 h and the MRT last at 12 h [39] was 2.4 h.
